Assay results from patent US10246429B2, “Vinyl fluoride cyclopropyl fused thiazin-2-amine compounds as beta-secretase inhibitors and methods of use” (AMGEN INC., priority 2015, dated 2019).

Legend:
BACE1 [1] = biological target: T1, BACE1 (Homo sapiens (Human), UniProt P56817); test: In vitro enzymatic BACE1 FRET assay; assay type: biochemical; conditions: read-out: IC50 IP (μM) BACE1 Enzyme
Target sequence in this assay (P56817 46-501): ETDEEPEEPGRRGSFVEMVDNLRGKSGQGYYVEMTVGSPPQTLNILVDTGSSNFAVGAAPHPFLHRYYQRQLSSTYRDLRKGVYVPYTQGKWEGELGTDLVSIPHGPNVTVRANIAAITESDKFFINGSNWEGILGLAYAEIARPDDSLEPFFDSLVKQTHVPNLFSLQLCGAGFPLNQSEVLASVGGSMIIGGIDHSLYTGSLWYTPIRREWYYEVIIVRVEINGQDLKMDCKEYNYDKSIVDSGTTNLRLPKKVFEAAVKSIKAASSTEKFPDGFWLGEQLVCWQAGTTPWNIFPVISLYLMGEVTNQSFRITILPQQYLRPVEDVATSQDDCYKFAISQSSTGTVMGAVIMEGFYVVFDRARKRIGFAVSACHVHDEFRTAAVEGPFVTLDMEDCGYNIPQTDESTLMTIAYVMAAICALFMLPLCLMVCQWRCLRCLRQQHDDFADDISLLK
Description: (§1) In Vitro Enzymatic BACE1 and BACE2 FRET (Fluorescence Resonance Energy Transfer) Assays (Enzyme Assay Data in Table 1)

BACE2 = BACE2 (Homo sapiens (Human), UniProt Q9Y5Z0); test: In vitro enzymatic BACE2 FRET assay; assay type: biochemical; conditions: read-out: IC50 IP (μM) BACE2 Enzyme
Chain of BACE2 (Q9Y5Z0 63-518): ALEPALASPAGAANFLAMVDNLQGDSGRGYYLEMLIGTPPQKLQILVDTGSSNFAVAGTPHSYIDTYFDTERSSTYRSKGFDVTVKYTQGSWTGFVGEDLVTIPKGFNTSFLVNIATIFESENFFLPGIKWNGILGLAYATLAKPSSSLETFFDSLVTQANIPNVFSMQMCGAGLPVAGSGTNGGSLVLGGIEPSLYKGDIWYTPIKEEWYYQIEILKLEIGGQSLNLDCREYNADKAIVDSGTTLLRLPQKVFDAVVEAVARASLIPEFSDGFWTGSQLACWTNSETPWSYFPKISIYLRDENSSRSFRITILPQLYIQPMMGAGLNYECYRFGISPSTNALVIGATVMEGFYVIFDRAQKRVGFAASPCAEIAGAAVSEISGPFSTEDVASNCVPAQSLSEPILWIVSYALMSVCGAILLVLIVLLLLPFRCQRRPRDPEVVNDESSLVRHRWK
Description: as §1

BACE1 [2] = biological target: T1, BACE1; test: BACE1 cell assay; assay type: cell-based; conditions: read-out: IC50 IP (μM) BACE1 Cell
Target sequence in this assay (P56817 46-501, species assumed): as the sequence (P56817 46-501) above

Cathepsin D (CatD) = Cathepsin D (CatD) (Homo sapiens (Human), UniProt P07339); test: CatD assay; assay type: biochemical; conditions: read-out: IC50 IP (μM) CatD
Chain of Cathepsin D (CatD) (P07339 65-412, species assumed): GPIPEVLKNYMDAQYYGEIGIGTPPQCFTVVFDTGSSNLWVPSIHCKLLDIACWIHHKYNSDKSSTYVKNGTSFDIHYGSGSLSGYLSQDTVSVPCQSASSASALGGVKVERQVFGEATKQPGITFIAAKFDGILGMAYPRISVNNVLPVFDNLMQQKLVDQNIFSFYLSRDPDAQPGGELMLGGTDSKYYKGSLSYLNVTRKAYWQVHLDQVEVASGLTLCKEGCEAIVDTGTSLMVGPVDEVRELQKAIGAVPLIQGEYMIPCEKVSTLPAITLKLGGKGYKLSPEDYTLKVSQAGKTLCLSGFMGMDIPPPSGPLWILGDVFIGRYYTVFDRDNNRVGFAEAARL

Structure (SMILES)	IC50 (BACE1 [1]) [µM]	IC50 (BACE2) [µM]	IC50 (BACE1 [2]) [µM]	IC50 (Cathepsin D (CatD)) [µM]
CC(C)[C@H]1CN(C(=O)[C@]23C[C@H]2[C@@](C)(c2cc(/C=C(\F)c4ccc(C#N)cn4)ccc2F)N=C(N)S3)CCO1 [Example 316, 6-((Z)-2-(3-((1S,5S,6S)-3-amino-1-((S)-2-isopropylmorpholine-4-carbonyl)-5-methyl-2-thia-4-azabicyclo[4.1.0]hept-3-en-5-yl)-4-fluorophenyl)-1-fluorovinyl)nicotinonitrile]	0.003	0.033	0.007	170
CC(C)[C@@H]1CN(C(=O)[C@]23C[C@H]2[C@@](C)(c2cc(/C=C(\F)c4ccc(C#N)cn4)ccc2F)N=C(N)S3)CCO1 [Example 317, 6-((Z)-2-(3-((1S,5S,6S)-3-amino-1-((R)-2-isopropylmorpholine-4-carbonyl)-5-methyl-2-thia-4-azabicyclo[4.1.0]hept-3-en-5-yl)-4-fluorophenyl)-1-fluorovinyl)nicotinonitrile]	0.0018	0.007	0.007	115
C[C@]1(c2cc(/C=C(\F)c3ccc(C#N)cn3)ccc2F)N=C(N)S[C@@]2(C(=O)N3CCOC4(CC4)C3)C[C@H]21 [Example 318, 6-((Z)-2-(3-((1S,5S,6S)-3-amino-5-methyl-1-(4-oxa-7-azaspiro[2.5]octane-7-carbonyl)-2-thia-4-azabicyclo[4.1.0]hept-3-en-5-yl)-4-fluorophenyl)-1-fluorovinyl)nicotinonitrile]	0.0029	0.051	0.0033	108
C[C@]1(c2cc(/C=C(\F)c3ccc(C#N)cn3)ccc2F)N=C(N)S[C@@]2(C(=O)N3CC4CCC(C3)O4)C[C@H]21 [Example 319]	0.0025	0.097	0.0017	318
C[C@]1(c2cc(/C=C(\F)c3ccc(C#N)cn3)ccc2F)N=C(N)S[C@@]2(C(=O)N3CC4(CCOCC4)C3)C[C@H]21 [Example 320, 6-((Z)-2-(3-((1S,5S,6S)-3-amino-5-methyl-1-(7-oxa-2-azaspiro[3.5]nonane-2-carbonyl)-2-thia-4-azabicyclo[4.1.0]hept-3-en-5-yl)-4-fluorophenyl)-1-fluorovinyl)nicotinonitrile]	0.0052	0.039	0.0024	292
C[C@H]1CN(C(=O)[C@]23C[C@H]2[C@@](C)(c2cc(/C=C(\F)c4ccc(C#N)cn4)ccc2F)N=C(N)S3)CCO1 [Example 321, 6-((Z)-2-(3-((1S,5S,6S)-3-amino-5-methyl-1-((S)-2-methylmorpholine-4-carbonyl)-2-thia-4-azabicyclo[4.1.0]hept-3-en-5-yl)-4-fluorophenyl)-1-fluorovinyl)nicotinonitrile]	0.0035	0.111	0.0027	578
CC(C)[C@@H]1COCCN1C(=O)[C@]12C[C@H]1[C@@](C)(c1cc(/C=C(\F)c3ccc(C#N)cn3)ccc1F)N=C(N)S2 [Example 322, 6-((Z)-2-(3-((1S,5S,6S)-3-amino-1-((R)-3-isopropylmorpholine-4-carbonyl)-5-methyl-2-thia-4-azabicyclo[4.1.0]hept-3-en-5-yl)-4-fluorophenyl)-1-fluorovinyl)nicotinonitrile]	0.0021	0.03	0.0026	27.8
C[C@H]1CN(C(=O)[C@]23C[C@H]2[C@@](C)(c2cc(/C=C(\F)c4ccc(C#N)cn4)ccc2F)N=C(N)S3)C[C@H](C)O1 [Example 323, 6-((Z)-2-(3-((1S,5S,6S)-3-amino-1-((2S,6S)-2,6-dimethylmorpholine-4-carbonyl)-5-methyl-2-thia-4-azabicyclo[4.1.0]hept-3-en-5-yl)-4-fluorophenyl)-1-fluorovinyl)nicotinonitrile]	0.0031	0.192	0.0026	411
C[C@]1(c2cc(/C=C(\F)c3ccc(C#N)cn3)ccc2F)N=C(N)S[C@@]2(C(=O)N3CCC(F)(F)CC3)C[C@H]21 [Example 325, 6-((Z)-2-(3-((1S,5S,6S)-3-amino-1-(4,4-difluoropiperidine-1-carbonyl)-5-methyl-2-thia-4-azabicyclo[4.1.0]hept-3-en-5-yl)-4-fluorophenyl)-1-fluorovinyl)nicotinonitrile]	0.0019	0.089	0.0042	446
C[C@]1(c2cc(/C=C(\F)c3ccc(C#N)cn3)ccc2F)N=C(N)S[C@@]2(C(=O)N3CCC(F)CC3)C[C@H]21 [Example 326, 6-((Z)-2-(3-((1S,5S,6S)-3-amino-1-(4-fluoropiperidine-1-carbonyl)-5-methyl-2-thia-4-azabicyclo[4.1.0]hept-3-en-5-yl)-4-fluorophenyl)-1-fluorovinyl)nicotinonitrile]	0.0016	0.045	0.0022	648
C[C@]1(c2cc(/C=C(\F)c3ccc(C#N)cn3)ccc2F)N=C(N)S[C@@]2(C(=O)N3CCC4(CCO4)C3)C[C@H]21 (stereo partly drawn) [Example 327, 6-((Z)-2-(3-((1S,5S,6S)-3-amino-5-methyl-1-(1-oxa-6-azaspiro[3.4]octane-6-carbonyl)-2-thia-4-azabicyclo[4.1.0]hept-3-en-5-yl)-4-fluorophenyl)-1-fluorovinyl)nicotinonitrile]	0.0008	0.028	0.0003	143
COC[C@H]1COCCN1C(=O)[C@]12C[C@H]1[C@@](C)(c1cc(/C=C(\F)c3ccc(C#N)cn3)ccc1F)N=C(N)S2 [Example 328, 6-((Z)-2-(3-((1S,5S,6S)-3-amino-1-((S)-3-(methoxymethyl)morpholine-4-carbonyl)-5-methyl-2-thia-4-azabicyclo[4.1.0]hept-3-en-5-yl)-4-fluorophenyl)-1-fluorovinyl)nicotinonitrile]	0.0023	0.085	0.0019	40.3
C[C@H]1CN(C(=O)[C@]23C[C@H]2[C@@](C)(c2cc(/C=C(\F)c4ccc(C#N)cn4)ccc2F)N=C(N)S3)[C@@H](C)CO1 [Example 329, 6-((Z)-2-(3-((1S,5S,6S)-3-amino-1-((2S,5S)-2,5-dimethylmorpholine-4-carbonyl)-5-methyl-2-thia-4-azabicyclo[4.1.0]hept-3-en-5-yl)-4-fluorophenyl)-1-fluorovinyl)nicotinonitrile]	0.0045	0.124	0.0035	73.9
C[C@@H]1CN(C(=O)[C@]23C[C@H]2[C@@](C)(c2cc(/C=C(\F)c4ccc(C#N)cn4)ccc2F)N=C(N)S3)[C@H](C)CO1 [Example 330, 6-((Z)-2-(3-((1S,5S,6S)-3-amino-1-((2R,5R)-2,5-dimethylmorpholine-4-carbonyl)-5-methyl-2-thia-4-azabicyclo[4.1.0]hept-3-en-5-yl)-4-fluorophenyl)-1-fluorovinyl)nicotinonitrile]	0.0086	0.239	0.0177	138
C[C@]1(c2cc(/C=C(\F)c3ccc(C#N)cn3)ccc2F)N=C(N)S[C@@]2(C(=O)N3CCOCC34CCC4)C[C@H]21 [Example 331, 6-((Z)-2-(3-((1S,5S,6S)-3-amino-5-methyl-1-(8-oxa-5-azaspiro[3.5]nonane-5-carbonyl)-2-thia-4-azabicyclo[4.1.0]hept-3-en-5-yl)-4-fluorophenyl)-1-fluorovinyl)nicotinonitrile]	0.0013	0.061	0.0032	8.9
